The source of these data is ChEMBL document CHEMBL1671731, “Fluoroquinolone efflux by the plasmid-mediated multidrug efflux pump QacB variant QacBIII in Staphylococcus aureus” (2010).

Structures are written as SMILES. ≈ marks a conversion by molar mass, not a printed value. Calls of active or inactive are those of the source.

The subject of assay [1] is Staphylococcus aureus. The experiment in a line: Antimicrobial activity against Staphylococcus aureus RDN1 harboring cloned pTZ2238-encoded QacBIV S151I mutant gene by agar dilution method. Format: functional. A general note: In agar dilution, organisms are placed on agar that contains the substance at set levels.
The test system of assay [2] is Staphylococcus aureus. The assay is described as follows: Antimicrobial activity against Staphylococcus aureus RDN1 harboring cloned pTZ2238-encoded QacBIV gene by agar dilution method. Format: functional.
In assay [3] the test system is Staphylococcus aureus. The experiment in a line: Antimicrobial activity against Staphylococcus aureus RDN1 harboring cloned pTZ2238-encoded QacBIV E377G mutant gene by agar dilution method. In kind it is functional.
Assay [4] deals with Staphylococcus aureus. The assay is described as follows: Antimicrobial activity against Staphylococcus aureus RDN1 harboring cloned pTZ2238-encoded QacBIV A184V mutant gene by agar dilution method. Format: functional.
Assay [5] relates to Staphylococcus aureus. The experiment in a line: Antimicrobial activity against Staphylococcus aureus RDN1 harboring cloned pTZ2182-encoded QacBII gene by agar dilution method. In kind it is functional.
In assay [6] the test system is Staphylococcus aureus. The assay is described as follows: Antimicrobial activity against Staphylococcus aureus RDN1 harboring cloned pTZN10 containing cat and bla genes by agar dilution method. In kind it is functional.
Assay [7] has as its system Staphylococcus aureus. The assay is described as follows: Antimicrobial activity against Staphylococcus aureus RDN1 harboring cloned pTZ2162-encoded QacBIII gene by agar dilution method. Format: functional.
The subject of assay [8] is Staphylococcus aureus. The assay is described as follows: Antimicrobial activity against Staphylococcus aureus RDN1 harboring cloned pTZ2396-encoded QacA gene by agar dilution method. Format: functional.
The subject of assay [9] is Staphylococcus aureus. The experiment in a line: Antimicrobial activity against Staphylococcus aureus RDN1 harboring cloned pTZ2162-encoded QacBIII E320A mutant gene by agar dilution method. Format: functional.
Assay [10] concerns Staphylococcus aureus. The experiment in a line: Antimicrobial activity against Staphylococcus aureus RDN1 harboring cloned pTZ2238-encoded QacBIV A19T mutant gene by agar dilution method. In kind it is functional.
A short description of assay [11]: Activity of antiseptic efflux protein QacBIII expressed in Staphylococcus aureus RDN1 assessed as decrease in compound accumulation in presence of CCCP.
A short description of assay [12]: Activity of antiseptic efflux protein QacBIII expressed in Staphylococcus aureus RDN1 assessed as decrease in compound accumulation.

With `N=C(NCCCCCCNC(=N)NC(=N)Nc1ccc(Cl)cc1)NC(=N)Nc1ccc(Cl)cc1.O=C(O)[C@H](O)[C@@H](O)[C@H](O)[C@H](O)CO`, the MIC stood at 4 µg/mL in assay [1]; 4 µg/mL in assay [2]; 2 µg/mL in assay [3]; 4 µg/mL in assay [4]; 4 µg/mL in [5]; 0.25 µg/mL in [6]. In addition, the MIC in [7] turned out to be 2 µg/mL; in assay [8], 2 µg/mL; in assay [9], 4 µg/mL; in [10], 4 µg/mL.
In the case of `N=C(N)c1ccc(OCCCCCOc2ccc(C(=N)N)cc2)cc1.O=S(=O)(O)CCO`, the MIC in [1] came to 1020 µg/mL; in assay [2], 1020 µg/mL; in [3], 512 µg/mL; in assay [4], 1020 µg/mL; in assay [5], 512 µg/mL; in assay [6], 1 µg/mL. Moreover, the MIC in assay [7] was 512 µg/mL; in assay [8] it was 512 µg/mL; in assay [9], 512 µg/mL; in assay [10] it was 1020 µg/mL.
For `O=C(O)c1cn(C2CC2)c2cc(N3CCNCC3)c(F)cc2c1=O` [CIPROFLOXACIN], the result in assay [11] was inactive. In addition, the minimum inhibitory concentration (MIC) in assay [2] stood at 0.06 µg/mL (≈ 0.181 µM); in assay [5] it was 0.06 µg/mL (≈ 0.181 µM); in assay [6], 0.06 µg/mL (≈ 0.181 µM); in assay [7], 0.25 µg/mL (≈ 0.754 µM); in assay [8] it was 0.13 µg/mL (≈ 0.392 µM); in [9] it was 0.06 µg/mL (≈ 0.181 µM). Besides, the result in assay [12] was Active.
Consider `CC(=O)NCC(=O)O.N=C(N)c1ccc(/N=N/Nc2ccc(C(=N)N)cc2)cc1` [DIMINAZEN ACETURATE], for which the MIC in assay [1] came to 2050 µg/mL; in assay [2], 2050 µg/mL; in [3] it was 512 µg/mL; in assay [4], 2050 µg/mL; in assay [5], 512 µg/mL; in assay [6], 4 µg/mL. Besides, the MIC in [7] is 1020 µg/mL; in assay [8], 2050 µg/mL; in assay [9], 512 µg/mL; in assay [10], 2050 µg/mL.
Take `C[n+]1c2cc(N)ccc2cc2ccc(N)cc21.[Cl-]` [EUFLAVINE]: the MIC in assay [1] is 1020 µg/mL; in assay [2], 1020 µg/mL; in assay [3] it was 1020 µg/mL; in assay [4] it was 1020 µg/mL; in [5], 1020 µg/mL; in [6], 1 µg/mL. Further, the minimal inhibitory concentration (MIC) in [7] stood at 256 µg/mL; in [8], 1020 µg/mL; in [9], 1020 µg/mL; in assay [10], 1020 µg/mL.
Consider `CN(C)c1ccc(C(=C2C=CC(=[N+](C)C)C=C2)c2ccc(N(C)C)cc2)cc1.[Cl-]` [GENTIAN VIOLET], for which the MIC was 0.5 µg/mL in [1]; 0.5 µg/mL in assay [2]; not below 1 µg/mL in [3]; 0.5 µg/mL in [4]; not below 1 µg/mL in assay [5]; 0.13 µg/mL in [6]. The MIC is 0.5 µg/mL in [7], not below 1 µg/mL in assay [8], not below 1 µg/mL in [9] and 0.5 µg/mL in assay [10].
In the case of `CC[n+]1c(-c2ccccc2)c2cc(N)ccc2c2ccc(N)cc21.[Br-]` [HOMIDIUM BROMIDE], the MIC was not below 2050 µg/mL in assay [1]; not below 2050 µg/mL in assay [2]; not below 2050 µg/mL in assay [3]; not below 2050 µg/mL in assay [4]; not below 2050 µg/mL in [5]; 1 µg/mL in [6]. Moreover, the MIC in assay [7] is 256 µg/mL; in assay [8], not below 2050 µg/mL; in assay [9] it was not below 2050 µg/mL; in assay [10], not below 2050 µg/mL.
For `C[C@H]1COc2c(N3CCN(C)CC3)c(F)cc3c(=O)c(C(=O)O)cn1c23.C[C@H]1COc2c(N3CCN(C)CC3)c(F)cc3c(=O)c(C(=O)O)cn1c23.O` [LEVOFLOXACIN], the MIC in [2], in [5], in assay [6], in assay [7], in assay [8] and in [9] was 0.25 µg/mL in each case.
On to `CCn1cc(C(=O)O)c(=O)c2cc(F)c(N3CCNCC3)cc21` [NORFLOXACIN], for which the result in assay [11] was inactive. The MIC is 0.13 µg/mL (≈ 0.407 µM) in [2]; 0.13 µg/mL (≈ 0.407 µM) in assay [5]; 0.13 µg/mL (≈ 0.407 µM) in assay [6]; 0.5 µg/mL (≈ 1.57 µM) in [7]; 0.25 µg/mL (≈ 0.783 µM) in assay [8]; 0.13 µg/mL (≈ 0.407 µM) in assay [9]. In assay [12], the outcome was Active.
For the molecule `[Cl-].c1ccc([P+](c2ccccc2)(c2ccccc2)c2ccccc2)cc1` [TETRAPHENYLPHOSPHONIUM CHLORIDE], the MIC in assay [1] was found to be 512 µg/mL; in [2], 512 µg/mL; in [3], 512 µg/mL; in assay [4], 512 µg/mL; in assay [5], 256 µg/mL; in [6], 4 µg/mL. The MIC in assay [7] was determined as 512 µg/mL; in assay [8], 256 µg/mL; in assay [9] it was 256 µg/mL; in [10], 512 µg/mL.

The MIC is the smallest concentration in the dilution series that meets the test's criterion for growth inhibition. The low end stands for greater potency, the high end for weaker potency.
